From patent publication US10525030B2 (priority 2013, dated 2020)

System: lithium-pilocarpine model of temporal lobe epilepsy
Test: Neuroprotection activity using the lithium-pilocarpine model of temporal lobe epilepsy
Format: in vivo, Male Sprague-Dawley rats
Conditions: rats after Li-pilocarpine
Protocol: Male Sprague-Dawley rats (purchased from Orient Bio Inc. Korea) of body weight 175-230 g were used for these studies and housed 4 rats per cage for 4-5 days. On the day prior to status epilepsy (SE), rats received 127 mg/kg lithium chloride (Sigma, St. Louis, Mo., U.S.A.) intraperitoneal (i.p.). Approximately 18-20 h following this treatment, rats were given an i.p. injection of 43 mg/kg pilocarpine (Sigma). An i.p. injection of 2 mg/kg methyl-scopolamine (Sigma) was administered 30 min prior to pilocarpine to block the effects of the muscarinic agonist on peripheral cholinergic receptors. The effects of various dose compound (or example) 1, 65 and 67, dissolved in 30% Poly Ethylene Glycol 400 (Acros Organics, Geel, Belgium) were studied at 30 min after SE onset. The drugs were administered i.p. in a volume of 2 ul/g body weight. Pharmacological effects of all the test materials were evaluated to compared test groups (n=8) with a control group (n=8). Control group was administrated vehicle, only. All animals were kept for 2 weeks to look at the mortality and quantification of cell densities was performed 14 days after SE in test groups and control rats not subjected to SE. The animals were deeply anesthetized by injection lumpun plus zoletile, 7:3 (v/v) and perfused transcardially with 150 ml of ice-cold 0.01 M phosphate buffer followed by 250 ml of freshly prepared ice-cold 4% paraformaldehyde (PFA) in 0.1 M phosphate buffer, pH 7.4. The brains were removed and postfixed in the same fixative for an additional 22˜24 h at 4° C., and then transferred to 30% sucrose for cryoprotection until the samples were precipitated. Brains were frozen in methyl butane with dry ice and stored at −80° C. Serial coronal […] slices were cut in a cryostat (Microtome HM 1850, Leica, Germany) and put the sections onto the slides, and air-dried before thionine staining. Every fifth section was selected for morphometric analysis.
Neuronal density quantification was performed automatically with the MCID Elite software (Interfocus Ltd, Linton, UK) by counting the number of neurons present in a defined area of the structure of interest (dorsal hippocampus—CA1, CA3, DZ) and carried out with a microscopic enlargement of 200- or 400-fold. Countings were performed twice on each side in each region by a single observer unaware of animal's treatment and averaged. In each structure, the mean and minimal surface area of the neurons were determined in order to count only neurons and exclude glial cells with smaller cell bodies. (Ref., Jennifer François, Katuschia Germe, Arielle Ferrandon, Estelle Koning, Astrid Nehlig (2011) Carisbamate has powerful disease-modifying effects in the lithium-pilocarpine model of temporal lobe epilepsy, Neuropharmacology 61: 313˜328)
Data were expressed as mean±sem. Statistical analysis of difference between groups was evaluated by ANOVA followed by Dunnett's test or Bonferroni test as a post hoc analysis using Statistica (Statsoft, Inc., USA). Difference was considered statistically significant when the p value was less than 0.05.

## C[C@H](OC(N)=O)[C@@H](O)c1ccccc1I [Compound 65, 1-(2-iodophenyl)-(S)-1-hydroxypropyl-(S)-2-carbamate]
5 mg/kg i.p. 30 min after SE onset, kept 2 weeks (FIG. 4)
  survival rate: 50%
25 mg/kg i.p. 30 min after SE onset, kept 2 weeks (FIG. 4)
  survival rate: 62.5%
50 mg/kg i.p. 30 min after SE onset, kept 2 weeks (FIG. 4)
  survival rate: 100%

## CC[C@H](OC(N)=O)[C@@H](O)c1ccccc1I [Compound 67, 1-(2-iodophenyl)-(S)-1-hydroxybutyl-(S)-2-carbamate]
30 mg/kg i.p. 30 min after SE onset, kept 2 weeks (FIG. 5)
  survival rate: 25%
120 mg/kg i.p. 30 min after SE onset, kept 2 weeks (FIG. 5)
  survival rate: 100%
